Measured values reported in PMC6757289, “Design and Characterization of SGK3-PROTAC1, an Isoform Specific SGK3 Kinase PROTAC Degrader” (ACS Chemical Biology, 2019).
Where two headings read alike, the source gives them in different places.

What was measured:
Assay in all cases: kinase profiling panel
Assay type in all cases: biochemical
Settings in all cases: read-out: % Activity Remaining
ULK2 = molecular target: T1, ULK2 (Homo sapiens, UniProt Q8IYT8)
T1 sequence (Q8IYT8 1-1036): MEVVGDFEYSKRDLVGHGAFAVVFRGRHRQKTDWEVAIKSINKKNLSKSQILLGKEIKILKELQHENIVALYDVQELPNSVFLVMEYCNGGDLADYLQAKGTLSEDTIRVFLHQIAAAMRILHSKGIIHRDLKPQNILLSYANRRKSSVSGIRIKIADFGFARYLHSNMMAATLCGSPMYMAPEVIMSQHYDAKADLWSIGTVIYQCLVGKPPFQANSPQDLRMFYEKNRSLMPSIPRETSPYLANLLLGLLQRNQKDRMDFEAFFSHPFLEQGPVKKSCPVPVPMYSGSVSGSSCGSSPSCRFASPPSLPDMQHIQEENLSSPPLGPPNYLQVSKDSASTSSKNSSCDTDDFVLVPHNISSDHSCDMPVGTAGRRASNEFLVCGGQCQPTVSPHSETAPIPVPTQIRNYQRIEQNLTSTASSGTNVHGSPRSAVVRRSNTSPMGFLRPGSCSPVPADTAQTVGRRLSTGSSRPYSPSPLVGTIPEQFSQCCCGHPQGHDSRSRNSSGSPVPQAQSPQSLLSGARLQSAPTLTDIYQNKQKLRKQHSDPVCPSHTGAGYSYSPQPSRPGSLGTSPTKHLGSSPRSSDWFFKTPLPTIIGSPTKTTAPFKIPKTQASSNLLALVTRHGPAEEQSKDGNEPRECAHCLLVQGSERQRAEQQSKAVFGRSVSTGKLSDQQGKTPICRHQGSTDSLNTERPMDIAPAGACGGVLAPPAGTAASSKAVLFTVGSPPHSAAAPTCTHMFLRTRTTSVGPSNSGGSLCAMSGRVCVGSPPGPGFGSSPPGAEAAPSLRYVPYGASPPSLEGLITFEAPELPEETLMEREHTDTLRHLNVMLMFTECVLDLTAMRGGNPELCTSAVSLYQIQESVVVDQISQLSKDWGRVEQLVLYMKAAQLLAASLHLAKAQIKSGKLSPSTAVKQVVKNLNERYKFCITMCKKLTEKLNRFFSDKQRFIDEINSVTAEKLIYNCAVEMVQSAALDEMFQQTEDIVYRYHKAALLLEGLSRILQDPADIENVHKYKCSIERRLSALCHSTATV
Source text: (§1) Protein kinase profiling against a Dundee panel of 140 protein kinases was undertaken at the International Centre for Protein Kinase Profiling. The result for each kinase was presented as a mean kinase activity of the reaction taken in triplicate relative to a control sample treated with DMSO. Assay conditions and abbreviations are available at http://www.kinase-screen.mrc.ac.uk.

EPH-B1 = molecular target: T2, EPH-B1 (Homo sapiens, UniProt P54762)
T2 sequence (P54762 18-984): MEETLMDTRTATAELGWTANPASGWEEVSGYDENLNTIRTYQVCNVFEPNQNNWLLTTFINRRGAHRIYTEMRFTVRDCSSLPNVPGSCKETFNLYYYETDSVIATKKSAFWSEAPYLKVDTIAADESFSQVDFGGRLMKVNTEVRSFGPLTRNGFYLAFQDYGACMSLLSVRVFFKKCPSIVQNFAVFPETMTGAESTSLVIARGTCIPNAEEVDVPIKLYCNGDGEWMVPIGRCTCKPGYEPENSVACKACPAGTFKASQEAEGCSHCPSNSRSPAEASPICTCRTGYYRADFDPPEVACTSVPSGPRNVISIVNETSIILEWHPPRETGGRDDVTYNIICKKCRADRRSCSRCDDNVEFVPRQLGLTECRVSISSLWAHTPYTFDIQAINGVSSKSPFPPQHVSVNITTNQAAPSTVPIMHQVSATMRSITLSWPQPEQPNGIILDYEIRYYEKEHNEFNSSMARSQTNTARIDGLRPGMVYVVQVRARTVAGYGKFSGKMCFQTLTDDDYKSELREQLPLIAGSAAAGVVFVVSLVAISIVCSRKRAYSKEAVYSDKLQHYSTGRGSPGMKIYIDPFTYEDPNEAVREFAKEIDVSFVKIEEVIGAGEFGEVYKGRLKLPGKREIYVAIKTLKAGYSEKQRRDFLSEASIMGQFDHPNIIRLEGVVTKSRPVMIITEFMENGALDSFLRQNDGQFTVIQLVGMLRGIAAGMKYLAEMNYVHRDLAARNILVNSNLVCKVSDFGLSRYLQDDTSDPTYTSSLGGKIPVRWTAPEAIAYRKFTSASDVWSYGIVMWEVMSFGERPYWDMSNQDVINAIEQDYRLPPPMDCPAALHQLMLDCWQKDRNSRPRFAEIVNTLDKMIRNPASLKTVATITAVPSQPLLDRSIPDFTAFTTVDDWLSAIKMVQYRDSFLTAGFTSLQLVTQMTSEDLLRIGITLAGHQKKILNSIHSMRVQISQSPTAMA
Source text: as §1

DDR2 = molecular target: T3, DDR2 (Homo sapiens, UniProt Q16832)
T3 sequence (Q16832 22-855): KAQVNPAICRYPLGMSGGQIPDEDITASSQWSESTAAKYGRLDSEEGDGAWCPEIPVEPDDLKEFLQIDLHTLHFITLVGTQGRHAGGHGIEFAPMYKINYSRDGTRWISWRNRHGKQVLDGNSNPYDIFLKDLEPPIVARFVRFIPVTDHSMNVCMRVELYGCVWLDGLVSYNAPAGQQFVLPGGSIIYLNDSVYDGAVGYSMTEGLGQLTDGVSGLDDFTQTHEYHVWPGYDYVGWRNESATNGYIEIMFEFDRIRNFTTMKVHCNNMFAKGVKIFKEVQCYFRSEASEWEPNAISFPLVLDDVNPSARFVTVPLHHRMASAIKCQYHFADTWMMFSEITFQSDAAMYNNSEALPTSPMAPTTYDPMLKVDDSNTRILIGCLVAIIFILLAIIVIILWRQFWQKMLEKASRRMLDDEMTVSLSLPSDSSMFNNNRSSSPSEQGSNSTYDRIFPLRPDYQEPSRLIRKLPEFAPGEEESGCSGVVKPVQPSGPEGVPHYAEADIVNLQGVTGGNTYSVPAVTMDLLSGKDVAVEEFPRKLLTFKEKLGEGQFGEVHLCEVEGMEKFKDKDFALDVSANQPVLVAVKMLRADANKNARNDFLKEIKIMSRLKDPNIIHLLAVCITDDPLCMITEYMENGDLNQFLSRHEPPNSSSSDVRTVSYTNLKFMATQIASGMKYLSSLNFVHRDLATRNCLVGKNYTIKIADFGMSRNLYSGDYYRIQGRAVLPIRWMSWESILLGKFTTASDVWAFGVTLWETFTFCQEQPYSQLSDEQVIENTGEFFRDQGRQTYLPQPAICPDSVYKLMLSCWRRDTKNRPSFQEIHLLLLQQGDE
Source text: as §1

EPH-A2 = EPH-A2 (Homo sapiens, UniProt P29317)
Sequence of EPH-A2 (P29317 24-976): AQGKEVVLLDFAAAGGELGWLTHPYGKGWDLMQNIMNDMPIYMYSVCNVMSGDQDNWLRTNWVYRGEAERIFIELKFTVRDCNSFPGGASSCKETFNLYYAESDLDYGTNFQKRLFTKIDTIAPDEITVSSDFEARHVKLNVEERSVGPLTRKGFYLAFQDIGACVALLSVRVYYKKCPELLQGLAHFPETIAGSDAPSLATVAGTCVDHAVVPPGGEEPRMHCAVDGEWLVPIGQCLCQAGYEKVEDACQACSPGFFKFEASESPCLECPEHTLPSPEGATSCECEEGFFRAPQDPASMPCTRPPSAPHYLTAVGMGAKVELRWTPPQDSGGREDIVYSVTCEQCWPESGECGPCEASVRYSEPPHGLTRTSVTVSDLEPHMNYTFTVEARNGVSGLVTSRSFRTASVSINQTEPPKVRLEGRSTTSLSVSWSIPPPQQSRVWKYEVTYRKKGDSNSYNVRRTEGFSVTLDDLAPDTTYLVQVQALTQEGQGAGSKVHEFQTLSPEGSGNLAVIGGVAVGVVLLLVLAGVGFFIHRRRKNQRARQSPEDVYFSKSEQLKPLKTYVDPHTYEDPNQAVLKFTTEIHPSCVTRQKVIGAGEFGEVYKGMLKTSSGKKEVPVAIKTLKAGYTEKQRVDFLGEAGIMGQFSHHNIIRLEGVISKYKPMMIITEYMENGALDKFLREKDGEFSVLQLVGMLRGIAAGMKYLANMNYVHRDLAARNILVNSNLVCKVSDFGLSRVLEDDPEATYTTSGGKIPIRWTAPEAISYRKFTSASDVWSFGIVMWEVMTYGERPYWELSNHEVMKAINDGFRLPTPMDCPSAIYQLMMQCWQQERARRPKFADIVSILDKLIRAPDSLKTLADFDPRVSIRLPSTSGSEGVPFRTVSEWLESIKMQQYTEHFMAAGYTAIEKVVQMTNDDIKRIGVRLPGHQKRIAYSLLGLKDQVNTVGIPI
Source text: as §1

Cc1ccc(F)c(S(=O)(=O)Nc2ccc(-c3nc(OC[C@H]4CN(CCCCCCOCCOCCOCC(=O)N[C@H](C(=O)N5C[C@H](O)C[C@H]5C(=O)NCc5ccc(-c6scnc6C)cc5)C(C)(C)C)CCO4)c4cn[nH]c4n3)cc2)c1 [SGK3-PROTAC1]
remaining activity at 1 µM (ULK2; 1 µM): 103% | remaining activity at 1 µM (EPH-B1; 1 µM): 100% | remaining activity at 1 µM (DDR2; 1 µM): 114% | remaining activity at 1 µM (EPH-A2; 1 µM): 94%

COc1ccc(Cl)c(S(=O)(=O)Nc2ccc(-c3nc(OC[C@H]4CNCCO4)c4c(C)n[nH]c4n3)cc2)c1 [290-R, reference compound]
remaining activity at 1 µM (ULK2): 46% | remaining activity at 1 µM (EPH-B1): 117% | remaining activity at 1 µM (DDR2): 80% | remaining activity at 1 µM (EPH-A2): 109%

Cc1ccc(F)c(S(=O)(=O)Nc2ccc(-c3nc(OC[C@H]4CN(CCCCCCOCCOCCOCC(=O)N[C@H](C(=O)N5C[C@@H](O)C[C@H]5C(=O)NCc5ccc(-c6scnc6C)cc5)C(C)(C)C)CCO4)c4cn[nH]c4n3)cc2)c1 [cisSGK3-PROTAC1]
remaining activity at 1 µM (ULK2; 1 µM): 117% | remaining activity at 1 µM (EPH-B1; 1 µM): 108% | remaining activity at 1 µM (DDR2; 1 µM): 134% | remaining activity at 1 µM (EPH-A2; 1 µM): 104%

Cc1ccc(F)c(S(=O)(=O)Nc2ccc(-c3nc(OC[C@H]4CNCCO4)c4cn[nH]c4n3)cc2)c1 [308-R, reference compound]
remaining activity at 1 µM (ULK2): 59% | remaining activity at 1 µM (EPH-B1): 96% | remaining activity at 1 µM (DDR2): 106% | remaining activity at 1 µM (EPH-A2): 113%
